{
  "source": "patent EP1293213A1",
  "about": "“PREVENTIVES/REMEDIES FOR POSTOPERATIVE STRESS” (Japan Tobacco Inc., priority 2000, dated 2001)",
  "key": {"[1]": {"target": "T1, CRF type I(CRF-I) receptor (Homo sapiens, UniProt P34998)", "T1 construct": "expressed in transfected cells; membrane fraction", "T1 sequence (P34998 24-415)": "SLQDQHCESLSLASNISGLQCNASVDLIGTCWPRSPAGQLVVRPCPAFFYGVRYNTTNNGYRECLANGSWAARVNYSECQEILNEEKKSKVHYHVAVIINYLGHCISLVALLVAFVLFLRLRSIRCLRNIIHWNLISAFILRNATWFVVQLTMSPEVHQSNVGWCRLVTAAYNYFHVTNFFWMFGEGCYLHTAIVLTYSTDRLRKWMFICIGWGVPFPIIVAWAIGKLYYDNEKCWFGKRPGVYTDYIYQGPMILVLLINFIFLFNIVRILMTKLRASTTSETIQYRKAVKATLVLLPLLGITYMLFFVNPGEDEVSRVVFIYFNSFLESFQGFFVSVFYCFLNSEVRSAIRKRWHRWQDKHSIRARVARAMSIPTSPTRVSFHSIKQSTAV", "test": "in vitro Binding Assay using membrane fraction of recombinant cell (6EF2B) expressing CRF receptor gene (SPA method)", "conditions": "125I-Tyr0-human/rat CRF, membrane fraction of 6EF2B cells (derived from Hela cell), read-out: IC50(nM) [experiment 1]", "experimental": "Experiment 1 : in vitro Binding Assay using membrane fraction of recombinant cell (6EF2B) with expression of CRF receptor gene\nPreparation of membrane fraction:\nRecombinant cells 6EF2B (derived from Hela cell), which express CRF type I(CRF-I) receptor gene stably, were cultivated in Eagle's MEM medium(10%FCS, 400ug/ml G418.1/100 penicillin/streptomycin). After cultivation, cells were suspended in 50mM Tris-HCl (pH7.2) solution containing 1mM EDTA and incubated at 25°C for 15 to 30 minutes. After that, every step was carried out at 4°C. Treated cells were suspended in 50mM Tris-HCl(pH7.2) containing 10% sucrose and homogenized by a Polytron(PT10-35 model). This step of homogenization was carried out at 25,000 rpm for 15 to 20 seconds and repeated twice or three times. In the course of this step the homogenates were inspected under a microscope. Homogenates were centrifuged at 600 x g for 5 minutes and the supernatant was centrifuged again at 40,000 x g for 30 minutes. The obtained pellet was resuspended in 50mM Tris-HCl(10mM MgCl2, 2mM EGTA) and the suspension was centrifuged again at 40,000 x g for 30minutes. The obtained pellet was used for further experiments as membrane fraction. The membrane fraction was diluted with 50mM Tris-HCl(10mM MgCl2, 2mM EGTA, 0.1%BSA, 100 kallikrein units/ml aprotinin, 0.1mM bacitracin, pH7.2) to have the concentration of 1mg/ml and then stored at -80°C. DC protein assay kit (produced by Bio-RAD) was used to determine the protein concentration of the membrane fraction.\nBinding Assay using CRF-I receptor by means of SPA method:\nCompounds to be evaluated were stored at the concentration of 10mM in DMSO. […] The assay buffer consisted of 50mM Tris-HCl (pH7.7) containing 100mM NaCl, 5mM KCl, 2mM CaCl2, 0.1% BSA, 0.1% bacitracin, 0.05% FCS and 5% horse serum. The reactions were carried out in 96-well Optiplate(Packard) in which to 50ul of the test substance solution, were added 50ul of WGA-beads & membrane fraction (50 to 100ug membrane fraction/10mg beads/ml) pre-coupled by stirring (rotating with 10rpm) at room temperature for 2 hours on the day of experiment, and 100ul of 0.4nM ^125I-Tyr^0-human/rat CRF(NEX-216, Dupont NEN), to be made up 200ul as total volume, and the mixture was incubated at 25°C for 3 hours. By the way, the step of pre-coupling was carried out by using beads solution (20mg/ml) suspended in 50mM Tris-HCl buffer solution (pH7.2) and after stirring beads were washed twice with Tris-HCl buffer and once with assay buffer by centrifugation (3000 rpm, 5 minutes). In order to measure total binding and non-specific binding activity, assay buffer solution and 1uM(final conc.) cold human /rat CRF(C-3042; SIGMA) solution were used respectively in place of test substance solution. After incubation, the mixture was centrifuged at 23 °C, 2,500 rpm for 5 minutes and the scintillation was counted with Top Count (Packard). An influence of color quench was corrected by standard curve made by using tartrazine as a quencher. Evaluation of samples was carried out several times."}, "corticosterone(CORT)": {"tested_on": "corticosterone(CORT)", "test": "Experiment 3: Model of surgical stress in mouse (inhibitory action of rise in releasing of CORT)", "type": "in vivo", "conditions": "ddY male mice, intravenous, blood 30 minutes after incision", "experimental": "Experiment 3: Model of surgical stress in mouse (Inhibitory action of rise in releasing of corticosterone(CORT))\nddY male mice(SLC, 7 weeks of age: weight 35 to 41g)were used. Mice were housed before use under controlled lighting condition (12hours light and 12hours dark cycle(lights on from 8:00 to 20:00) at 23±3 °C and humidity 55±15%, and maintained with basal diet and water ad labium. On the experimental day, after mice were weighted, diet was removed from mice just before experiments to eliminate the effects of food intake on experiments. Then, mice were moved to experimental room and habituated before experiment for more than 1 hour. On the day before experiment, mice were previously handled (by being fastened up for 10 to 15 seconds like the case of i.p. injections) to habituate to the stress caused by handling. Mice were divided into groups according to their weights on the experimental day.\nMedicine applied and method of administration: […]\nMice were anesthetized by injections of pentobarbital Na (2.5mg/mouse i.p.) and after 20 minutes the solvent alone or the solution containing test sample to be evaluated were intravenously injected into the tail veins of mice at a dose of 10ml/Kg weight. […]\nThe concentration of CORT was determined by using Corticosterone Double Antibody (RIA measurement kit of CORT; ICN Pharmaceuticals, Inc.). […]"}, "[2]": {"tested_on": "adrenocorticotropic hormone(ACTH)", "test": "Experiment 2: Model of surgical stress in mouse (inhibitory action of rise in releasing of ACTH)", "type": "in vivo", "conditions": "ddY male mice, intravenous, surgical stress (abdominal incision, bowel draped externally)", "experimental": "Experiment 2: Model of surgical stress in mouse (Inhibitory action of rise in releasing of adrenocorticotropic hormone(ACTH))\nddY male mice(SLC, 7 to 8 weeks of age: weight 34 to 42g)were used for experiments. Mice were housed before use under controlled lighting condition (12hours light and 12hours dark cycle(lights on from 8:00 to 20:00) at 23±3 °C and 55±15% humidity, and maintained with basal diet and water ad labium. On the experimental day, mice were moved to experimental room and habituated before experiment for more than 1 hour. On the day before experiment, mice were previously handled (by being fastened up for 10 to 15 seconds like the case of i.p. injections) to habituate to the stress caused by handling.\nMedicine and administration:\nTest compound to be evaluated was dissolved in and diluted with physiological saline(Otsuka), 5% mannitol or 0.1N NaHCO3/saline. Then the test sample solution was given into veins of mice at a dose of 10ml/Kg body weight. The same solvent alone mentioned above was given into veins of control mice group at a dose of 10ml/Kg weight.\nMice were anesthetized by injection of pentobarbital Na (2.5mg/mouse i.p.) and after 15 minutes the solvent alone or the solution containing test sample to be evaluated were intravenously injected on the tails of mice at a dose of 10ml/ Kg weight of mouse. After more 10 minutes a midline incision was made in the abdomen and in two minutes bowel was draped externally. Then 2.5 minutes after incision 0.6ml of blood samples were collected from main vein abdominalis for 1 minute gradually by using prechilled syringes(needle size 25G), which were wetted with 100mM EDTA solution. Control mice not subjected to surgical stress were decapitated and blood samples were collected at 13 to 14 minutes after medication of solvent alone and to them added 20ul of 100mM EDTA. Blood samples collected were put into siliconized tubes and centrifuged at 10,000rpm and 4°C for 5 minutes. The concentration of ACTH in supernatant was determined by IRMA method using Allegro ACTH kit (Nihon Medi+Physics Co.,Ltd.). […]"}},
  "data": [
    {"molecule": "CCc1cc(S(=O)(=O)N(CC)CC)cc(NC(=O)c2cc(Cl)c([O-])c(Cl)c2)c1OC.[K+]", "note": "[Example 7, potassium 2,6-dichloro-4-(N-(3-ethyl-5-diethylsulfamoyl-2-methoxyphenyl)carbamoyl)phenoxide]", "values": [
      {"measurement": "IC50", "setting": "[1]", "result": 263, "unit": "nM"},
      {"measurement": "Inhibitory action on CORT release (mg/kg) [experiment 3]", "setting": "corticosterone(CORT)", "result": "10 to 30", "unit": "mg/kg"},
      {"measurement": "Inhibitory action on ACTH release (mg/kg) [experiment 2]", "setting": "[2]", "result": "10 to 30", "unit": "mg/kg"}
    ]}
  ]
}
